In assay [1] the test system is U937 cells. The assay can be described thus: Cellular assay in U937 cells: activity of RIPK1 inhibitors on TNFα/zVAD.fmk-induced cell death (necroptosis), CellTiter 96 AQueous (MTS) readout. Conditions: Homo sapiens, U-937. The assay is classed as cell-based. The procedure, abridged: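 Necroptosis was measured by viable-cell MTS reduction (4 h, absorbance 490 nm) after overnight (18–24 h) 37° C culture. Cell suspensions of U937 cells carried TNFα (100 ng/ml) plus zVAD.fmk (50 μM) before compound was added. A 10-point curve (10 μM–0.26 nM or 1 μM–0.07 nM) was run in duplicate, normalised to the control lacking TNFα/zVAD.fmk.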

Assay [2] concerns the target T1, hRIPK1 (aa 1-375) fusion protein (Homo sapiens, UniProt Q13546).
T1 construct: hRIPK1 (aa 1-375) fusion protein
T1 sequence (Q13546 1-375): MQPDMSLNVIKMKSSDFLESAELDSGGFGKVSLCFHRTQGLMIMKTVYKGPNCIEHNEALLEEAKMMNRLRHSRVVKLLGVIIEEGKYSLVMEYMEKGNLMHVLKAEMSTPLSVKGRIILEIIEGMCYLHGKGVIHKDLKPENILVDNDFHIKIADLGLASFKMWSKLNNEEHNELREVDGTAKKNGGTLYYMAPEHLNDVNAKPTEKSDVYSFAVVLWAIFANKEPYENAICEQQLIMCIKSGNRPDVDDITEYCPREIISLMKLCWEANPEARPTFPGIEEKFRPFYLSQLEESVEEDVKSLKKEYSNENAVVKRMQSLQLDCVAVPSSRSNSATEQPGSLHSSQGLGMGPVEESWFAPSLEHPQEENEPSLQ
Briefly: ADP-Glo kinase assay: catalytic activity of RIPK1 (autophosphorylation, conversion of ATP to ADP). In kind it is biochemical. The procedure, abridged:
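hRIPK1 (aa 1-375) fusion protein (3.6 μg/ml final) was preincubated 30 min at rt with compound (33300-1.69 nM, 1% DMSO), then 50 μM ATP was added for 240 min at rt. ADP from autophosphorylation was measured by ADP-Glo luminescence and curves fitted by nonlinear regression.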

In general, IC50 refers to the concentration that inhibits the measured activity by half. On to `Cc1ccc(C[C@H]2CC[C@H](C(=O)N3OCC[C@H]3c3cc(F)cc(C#N)c3)CC2)nn1` [compound 303, trans-3-fluoro-5-[(3S)-2-[4-[(6-methylpyridazin-3-yl)methyl]cyclohexanecarbonyl]isoxazolidin-3-yl]benzonitrile], for which the IC50 in assay [1] is 16 nM; in assay [2], 7 nM.
Taken in the same sequence, the figures for `Cc1ccc([C@@H]2CCON2C(=O)[C@H]2CC[C@H](Cc3cc(-n4ccnc4C)ncn3)CC2)cc1` [compound 136, trans-[4-[[6-(2-methylimidazol-1-yl)pyrimidin-4-yl]methyl]cyclohexyl]-[(3S)-3-(p-tolyl)isoxazolidin-2-yl]methanone] were 26 nM and 26 nM.
Taken in the same sequence, the figures for `O=C([C@H]1CC[C@H](Cc2cc(F)c3ncnn3c2)CC1)N1OCC[C@H]1c1cnccn1` [compound 205, trans-[4-[(8-fluoro-[1,2,4]triazolo[1,5-a]pyridin-6-yl)methyl]cyclohexyl]-[(3S)-3-pyrazin-2-ylisoxazolidin-2-yl]methanone] were 112 nM and 31 nM.
The corresponding values for `N#Cc1cc(F)c2ncn(C[C@H]3CC[C@H](C(=O)N4OCC[C@H]4c4cc(F)cc(F)c4)CC3)c2c1` [compound 37, trans-1-((4-((S)-3-(3,5-difluorophenyl)isoxazolidine-2-carbonyl)cyclohexyl)methyl)-4-fluoro-1H-benzo[d]imidazole-6-carbonitrile] are 5 nM and 17 nM.
Turning to `Cc1cn2ncc(C[C@H]3CC[C@H](C(=O)N4OCC[C@H]4c4ccc(F)cc4)CC3)cc2n1` [compound 324, trans-[4-[(3S)-2-[4-[(2-methylimidazo[1,2-b]pyridazin-7-yl)methyl]cyclohexanecarbonyl]isoxazolidin-3-yl]phenyl]], the IC50 came out at 35 nM in assay [1] and 34 nM in assay [2].
Taken in the same sequence, the figures for `Cc1cc([C@@H]2CCON2C(=O)[C@H]2CC[C@H](Cn3cc4c(F)cc(C#N)cc4n3)CC2)co1` [compound 42, trans-4-fluoro-2-((4-((S)-3-(5-methylfuran-3-yl)isoxazolidine-2-carbonyl)cyclohexyl)methyl)-2H-indazole-6-carbonitrile] were 119 nM and 39 nM.
Take `O=C1NCc2c(F)cc(C[C@H]3CC[C@H](C(=O)N4OCC[C@H]4c4ccc(F)cc4)CC3)cc21` [compound 212, trans-4-fluoro-6-[[4-[(3S)-3-(4-fluorophenyl)isoxazolidine-2-carbonyl]cyclohexyl]methyl]isoindolin-1-one]: the IC50 in assay [1] is 10 nM; in assay [2] it was 23 nM.
In the case of `N#Cc1cc(F)cc([C@@H]2CCON2C(=O)[C@H]2CC[C@H](Cn3cnc4c(F)cc(C(N)=O)cc43)CC2)c1` [compound 80, trans-1-((4-((S)-3-(3-cyano-5-fluorophenyl)isoxazolidine-2-carbonyl)cyclohexyl)methyl)-4-fluoro-1H-benzo[d]imidazole-6-carboxamide], the IC50 amounted to 745 nM in assay [1] and 60 nM in assay [2].
Taken in the same sequence, the figures for `Cc1cc([C@@H]2CCON2C(=O)[C@H]2CC[C@H](Cn3ncc4c(F)cc(C#N)cc43)CC2)co1` [compound 44, trans-4-fluoro-1-((4-((S)-3-(5-methylfuran-3-yl)isoxazolidine-2-carbonyl)cyclohexyl)methyl)-1H-indazole-6-carbonitrile] were 2 nM and 17 nM.
Consider `N#Cc1cc(F)cc([C@@H]2CCON2C(=O)[C@H]2CC[C@H](Cn3ncc4ncc(C(N)=O)cc43)CC2)c1` [compound 78, trans-1-((4-((S)-3-(3-cyano-5-fluorophenyl)isoxazolidine-2-carbonyl)cyclohexyl)methyl)-1H-pyrazolo[4,3-b]pyridine-6-carboxamide], for which the IC50 worked out at 72 nM in assay [1] and 40 nM in assay [2].
The corresponding values for `Cn1nccc1C[C@H]1CC[C@H](C(=O)N2OCC[C@H]2c2ccc(F)cc2)CC1` [compound 306, trans-[(3S)-3-(4-fluorophenyl)isoxazolidin-2-yl]-[4-[(2-methylpyrazol-3-yl)methyl]cyclohexyl]methanone] are 25 nM and 17 nM.
Taken in the same sequence, the figures for `Cc1c(C#N)cncc1C[C@H]1CC[C@H](C(=O)N2OCC[C@H]2c2cc(F)cc(C#N)c2)CC1` [compound 276, trans-5-[[4-[(3S)-3-(3-cyano-5-fluoro-phenyl)isoxazolidine-2-carbonyl]cyclohexyl]methyl]-4-methyl-pyridine-3-carbonitrile] were 9 nM and 20 nM.
As for `Cc1ccc([C@@H]2CCON2C(=O)[C@H]2CC[C@H](Cc3ccn4nc(C)nc4c3)CC2)cn1` [compound 373, trans-[(S)-3-(6-Methyl-pyridin-3-yl)-isoxazolidin-2-yl]-[4-(2-methyl-[1,2,4]triazolo[1,5-a]pyridin-7-ylmethyl)-cyclohexyl]-methanone], the IC50 in assay [1] worked out at 78 nM; in assay [2], 110 nM.
Taken in the same sequence, the figures for `Cc1ncc([C@@H]2CCON2C(=O)[C@H]2CC[C@H](Cc3cc(C)c4ncnn4c3)CC2)cc1F` [compound 335, trans-[(3S)-3-(5-fluoro-6-methylpyridin-3-yl)-1,2-oxazolidin-2-yl]-[4-[(8-methyl-[1,2,4]triazolo[1,5-a]pyridin-6-yl)methyl]cyclohexyl]methanone] were 11 nM and 27 nM.
Taken in the same sequence, the figures for `Cc1ccc(C[C@H]2CC[C@H](C(=O)N3OCC[C@H]3c3cc(F)cc(F)c3)CC2)cc1C(N)=O` [compound 132, trans-5-[[4-[(3S)-3-(3,5-difluorophenyl)isoxazolidine-2-carbonyl]cyclohexyl]methyl]-2-methyl-benzamide] were 4 nM and 13 nM.
Taken in the same sequence, the figures for `Cc1cnc([C@@H]2CCON2C(=O)[C@H]2CC[C@H](Cc3cc(F)cnc3C)CC2)cn1` [compound 316, trans-[4-[(5-fluoro-2-methyl-3-pyridyl)methyl]cyclohexyl]-[(3S)-3-(5-methylpyrazin-2-yl)isoxazolidin-2-yl]methanone] were 27 nM and 31 nM.
For `Cc1ccc([C@@H]2CCON2C(=O)[C@H]2CC[C@H](Cc3cnc(C)nc3)CC2)cn1` [compound 344, trans-[(3S)-3-(6-methylpyridin-3-yl)-1,2-oxazolidin-2-yl]-[4-[(2-methylpyrimidin-5-yl)methyl]cyclohexyl]methanone], the IC50 came to 173 nM in assay [1] and 243 nM in assay [2].
As for `Cc1nc2ccc(C[C@H]3CC[C@H](C(=O)N4OCC[C@H]4c4cncc(C#N)c4)CC3)cn2n1` [compound 262, trans-5-[(3S)-2-[4-[(2-methyl-[1,2,4]triazolo[1,5-a]pyridin-6-yl)methyl]cyclohexanecarbonyl]isoxazolidin-3-yl]pyridine-3-carbonitrile], the results for the half-maximal inhibitory concentration (IC50) in assay [1] and in assay [2] were 67 nM and 34 nM, respectively.
Take `N#Cc1cncc([C@@H]2CCON2C(=O)[C@H]2CC[C@H](Cn3cnc4ccc(F)cc43)CC2)c1` [compound 106, trans-5-((S)-2-(4-((6-fluoro-1H-benzo[d]imidazol-1-yl)methyl)cyclohexane-1-carbonyl)isoxazolidin-3-yl)nicotinonitrile]: the IC50 in assay [1] came to 54 nM; in assay [2], 46 nM.
The corresponding values for `N#Cc1cnc2ccn(C[C@H]3CC[C@H](C(=O)N4OCC[C@H]4c4ccccn4)CC3)c2c1` [compound 188, trans-1-[[4-[(3S)-3-(2-pyridyl)isoxazolidine-2-carbonyl]cyclohexyl]methyl]pyrrolo[3,2-b]pyridine-6-carbonitrile] are 124 nM and 37 nM.
Taken in the same sequence, the figures for `Cc1nc2ccc(C[C@H]3CC[C@H](C(=O)N4OCC[C@H]4c4cc(C#N)ccc4F)CC3)cn2n1` [compound 289, trans-4-fluoro-3-[(3S)-2-[4-[(2-methyl-[1,2,4]triazolo[1,5-a]pyridin-6-yl)methyl]cyclohexanecarbonyl]isoxazolidin-3-yl]benzonitrile] were 733 nM and 36 nM.
With `N#Cc1cc(C[C@H]2CC[C@H](C(=O)N3OCC[C@H]3c3cnccn3)CC2)ccc1F` [compound 243, trans-2-fluoro-5-[[4-[(3S)-3-pyrazin-2-ylisoxazolidine-2-carbonyl]cyclohexyl]methyl]benzonitrile], the IC50 in assay [1] worked out at 3 nM; in assay [2] it was 13 nM.
Taken in the same sequence, the figures for `Cc1ncc(C#N)cc1C[C@H]1CC[C@H](C(=O)N2OCC[C@H]2c2cc(F)cc(C#N)c2)CC1` [compound 277, trans-5-[[4-[(3S)-3-(3-cyano-5-fluoro-phenyl)isoxazolidine-2-carbonyl]cyclohexyl]methyl]-6-methyl-pyridine-3-carbonitrile] were 4 nM and 19 nM.
The corresponding values for `N#Cc1cc(F)c2cn(C[C@H]3CC[C@H](C(=O)N4OCC[C@H]4c4cc(F)cc(F)c4)CC3)nc2c1` [compound 35, trans-2-((4-((S)-3-(3,5-difluorophenyl)isoxazolidine-2-carbonyl)cyclohexyl)methyl)-4-fluoro-2H-indazole-6-carbonitrile] are 48 nM and 41 nM.

The record behind these values is US20260158009A1 (GENZYME CORPORATION, priority 2023, published 2026).
